Results published in PMC12005787, “Synthetic Lethality of SHP2 and XIAP Suppresses Proliferation and Metastasis in KRAS‐mutant Nonsmall Cell Lung Cancer” (Advanced Science, 2025).

Tests used:
A549 and NCI‐H2122 cells = assay: Compound removal from culture media (western blotting); type: cell-based, human
Source text: Due to the poor membrane permeability of SHP2 catalytic inhibitors,^[ [18], [30] ^] we examined the effect of embelin on SHP2 expression and phosphorylation after removing the compound from the culture media of A549 and NCI‐H2122 cells.

ΔSHP2^K325A = biological target: T1, ΔSHP2^K325A (Homo sapiens, UniProt Q06124, K325A); assay: PTP activity assay of K325A mutant; type: biochemical
T1 construct: His‐ΔSHP2, encompassing the peptide from amino acids 205–593 retaining PTP activity; His; made in house; host or cells: E. coli BL21
T1 sequence (Q06124 205-593 K325A): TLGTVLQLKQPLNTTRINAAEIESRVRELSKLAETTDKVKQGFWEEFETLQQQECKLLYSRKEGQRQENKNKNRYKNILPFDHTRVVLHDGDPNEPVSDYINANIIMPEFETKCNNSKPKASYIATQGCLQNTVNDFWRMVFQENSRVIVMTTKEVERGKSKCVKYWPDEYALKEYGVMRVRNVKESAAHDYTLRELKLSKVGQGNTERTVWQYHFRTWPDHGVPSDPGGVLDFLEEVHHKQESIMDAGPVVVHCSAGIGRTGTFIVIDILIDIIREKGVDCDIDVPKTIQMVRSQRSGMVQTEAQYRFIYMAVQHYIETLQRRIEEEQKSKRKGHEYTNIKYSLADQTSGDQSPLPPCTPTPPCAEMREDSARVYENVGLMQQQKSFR
Method: Catalytic activity screening methods for PTPs using candidate compounds were performed as previously described.^[ [77] ^] In brief, soluble fusion PTP proteins, His‐ΔSHP2, encompassing the peptide from amino acids 205–593 retaining PTP activity, His‐ΔSHP2^K325A, His‐ΔSHP1, encompassing the peptide from amino acids 202–595 retaining PTP activity, His‐PTP1B, His‐HePTP, His‐VHR, and His‐TCPTP were cloned, expressed, and purified in E. coli. After determining protein concentration using bicinchoninic acid (BCA) assay kit, 1 µg fusion protein, 10 µM library compound were added in 100 µL reaction mixture (55 mM 4‐(2‐hydroxyethyl)‐1‐piperazineethanesulfonic acid [HEPES], 100 mM sodium chloride [NaCl], 0.5 mM ethylenediaminetetraacetic acid [EDTA], 1 mM dithiothreitol [DTT], 0.01% Triton X‐100, 0.002% bovine serum albumin [BSA], and 0.1% dimethyl sulfoxide [DMSO]) and incubated at 37 °C for 30 min in the dark, with Na3VO4 as positive control. The detection substrate DiFMUP (50 µM) was promptly added to each reaction and functioned at 37 °C for 30 min in the dark. The fluorescence intensity was then measured using Multimode Plate Reader (λa = 358 nm, λe = 455 nm, PerkinElmer, USA).
A single‐point mutation assay of the pET32a‐ΔSHP2 plasmid was performed using the QuickMutation Site‐Directed Mutagenesis Kit (Beyotime, Shanghai, China). […]

SHP2 = biological target: T2, SHP2 (Homo sapiens, UniProt Q06124); assay: Cellular thermal shift assay (CETSA); type: binding; conditions: NCI‐H2122 cell lysate
T2 construct: endogenous in cells; host or cells: NCI-H2122
T2 sequence (Q06124 1-593): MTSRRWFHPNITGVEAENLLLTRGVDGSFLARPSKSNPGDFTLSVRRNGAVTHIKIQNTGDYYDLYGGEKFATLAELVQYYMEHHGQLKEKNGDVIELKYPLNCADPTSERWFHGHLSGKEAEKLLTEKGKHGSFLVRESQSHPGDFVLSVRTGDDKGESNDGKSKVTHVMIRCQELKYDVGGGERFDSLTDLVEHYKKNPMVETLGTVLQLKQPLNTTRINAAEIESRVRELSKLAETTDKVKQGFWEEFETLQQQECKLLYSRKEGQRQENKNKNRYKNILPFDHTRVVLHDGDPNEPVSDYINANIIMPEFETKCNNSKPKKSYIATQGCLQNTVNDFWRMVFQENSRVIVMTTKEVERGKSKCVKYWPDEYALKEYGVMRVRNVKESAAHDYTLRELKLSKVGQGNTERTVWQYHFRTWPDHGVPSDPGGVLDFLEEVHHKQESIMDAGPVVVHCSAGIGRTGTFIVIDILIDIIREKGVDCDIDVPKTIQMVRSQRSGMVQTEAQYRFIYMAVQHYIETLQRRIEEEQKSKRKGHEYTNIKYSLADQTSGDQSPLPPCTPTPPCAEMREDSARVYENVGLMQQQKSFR
Method: (§1) NCI‐H2122 cells were harvested and resuspended with pre‐cooled PBS containing 1% cocktail, which was then frozen in liquid nitrogen for 5 min and thawed in a water bath at 37 °C for 5 min for three repetitions. The supernatant was collected via centrifugation at 4 °C (15 000 × g, 20 min), divided into two equal portions; one was added with test drugs or various concentrations of embelin, and the other was added with DMSO as control and subsequently incubated at 25 °C for 30 min. All samples were heated at temperatures ranging from 52–70 °C for 3 min, and subsequently in an ice bath for 3 min and collected by centrifugation at 4 °C (15 000 × g, 20 min), and added with protein sampling buffer at 100 °C for 5 min, followed by analysis of protein stability using western blotting.

SHP2 in NCI‐H2122 cells = biological target: T3, SHP2 in NCI‐H2122 cells (Homo sapiens, UniProt Q06124); assay: Intracellular SHP2 activity (IP and DiFMUP); type: cell-based
T3 construct: endogenous in cells; host or cells: NCI-H2122
Method: To test intracellular SHP2 activity, the extract of NCI‐H2122 cells was precleared with protein A/G agarose beads and incubated with anti‐SHP2 antibody overnight at 4 °C, followed by further incubation with protein A/G agarose beads for 2 h at 4 °C. The Iimmunoprecipitates were suspended in sample buffer and detected in 96‐well black polystyrene plates using the fluorescent substrate DiFMUP under the same conditions as described above.

XIAP = biological target: T4, XIAP (Homo sapiens, UniProt P98170); assay: Cellular thermal shift assay (CETSA); type: binding; conditions: 56 and 62 ℃
T4 construct: endogenous in cells; host or cells: NCI-H2122
T4 sequence (P98170 whole entry): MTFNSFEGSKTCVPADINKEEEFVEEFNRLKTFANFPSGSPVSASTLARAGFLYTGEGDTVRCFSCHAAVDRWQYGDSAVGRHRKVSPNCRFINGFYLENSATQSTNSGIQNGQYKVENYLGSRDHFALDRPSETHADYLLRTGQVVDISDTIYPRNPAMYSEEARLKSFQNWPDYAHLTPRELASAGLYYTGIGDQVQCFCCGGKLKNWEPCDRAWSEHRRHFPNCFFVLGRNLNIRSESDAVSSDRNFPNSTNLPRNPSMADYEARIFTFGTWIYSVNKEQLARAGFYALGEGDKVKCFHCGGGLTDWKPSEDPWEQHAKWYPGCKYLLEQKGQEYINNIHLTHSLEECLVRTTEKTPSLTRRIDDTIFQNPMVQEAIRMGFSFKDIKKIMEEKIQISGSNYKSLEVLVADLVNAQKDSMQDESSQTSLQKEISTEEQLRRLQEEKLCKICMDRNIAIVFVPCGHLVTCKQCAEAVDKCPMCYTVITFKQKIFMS
Method: as §1

Row | Structure (SMILES) | membrane permeability (inferred from removal after 6 h vs continuous 24 h treatment) (A549 and NCI‐H2122 cells) | inhibitory effect on activity of ΔSHP2^K325A versus wild-type ΔSHP2 (ΔSHP2^K325A) | effect on SHP2 protein stability (CETSA) (SHP2) | effect on intracellular SHP2 activity (SHP2 in NCI‐H2122 cells) | effect on XIAP protein stability (CETSA) (XIAP)
1 | CCCCCCCCCCCC1=C(O)C(=O)C=C(O)C1=O [Embelin] | strong membrane permeability | notably diminished the inhibitory effect | increased the stability of SHP2 protein | significantly inhibited | –
2 | CC1(N)CCN(c2cnc(-c3cccc(Cl)c3Cl)c(N)n2)CC1 [SHP099] | – | – | – | – | did not affect XIAP protein stability
